Results as given in the supplement of paper PMC11061612.

Columns and labels:
[1] = tested on: NCI-H2066 (Squamous Cell Lung Carcinoma); test: Bliss excess, mean over the matrix (fraction); higher = more synergy
In short: (§1)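 Cell lines grown in DMEM/F12 or RPMI with 10% FBS were plated in 1536-well plates and held 24 hours at 37°C, 5% CO2 before 72 hours of exposure to two-drug dose matrices, with DMSO typically at 0.2%. CellTiter-Glo 2.0 luminescence gave viability, which was converted to inhibition. Vehicle wells were set to 0 and blank wells to 1. Combination Emax is the second-highest inhibition in the matrix, and Bliss excess is the observed combination effect minus the expected EA + EB − EA·EB, where EA and EB are the single-agent effects.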

8-MG-BA (Glioblastoma) [2] = test: as above
In short: as §1

[3] = tested on: CAL-29 (Bladder Carcinoma); test: as above
In short: as §1

[4] = tested on: CAPAN-2 (Pancreatic Carcinoma); test: combination Emax (second highest fraction inhibited in the dose matrix, 72 h); higher = more inhibition; extreme values may be limits of the assay
In short: as §1

[5] = tested on: NCI-H2066 (Squamous Cell Lung Carcinoma); test: as above
In short: as §1

[6] = tested on: NCI-H1650 (Lung Adenocarcinoma); test: as above
In short: as §1

[7] = tested on: TT2609-C02 (Thyroid Gland Carcinoma); test: as above
In short: as §1

[8] = tested on: BICR22 (Oral Cavity Carcinoma); test: as above
In short: as §1

[9] = tested on: COLO-824 (Breast Carcinoma); test: as above
In short: as §1

CAS-1 (Glioblastoma) = test: as above
In short: as §1

PA-1 (Ovarian Carcinoma) = test: as above
In short: as §1

[10] = tested on: NCI-H64 (Small Cell Lung Carcinoma); test: as above
In short: as §1

[11] = tested on: NCI-H1581 (Non-Small Cell Lung Carcinoma); test: as above
In short: as §1

[12] = tested on: KARPAS-422 (B-Cell Non-Hodgkin's Lymphoma); test: as above
In short: as §1

[13] = tested on: JSC-1 (B-Cell Non-Hodgkin's Lymphoma); test: as above
In short: as §1

GI-ME-N (Neuroblastoma) = test: as above
In short: as §1

NY (Osteosarcoma) = test: as above
In short: as §1

[14] = tested on: SISO (Cervical Carcinoma); test: as above
In short: as §1

ARH-77 (Non-Cancerous) = test: as above
In short: as §1

8-MG-BA (Glioblastoma) [15] = test: as above
In short: as §1
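Wherever Bliss excess, mean over the matrix is given: after 72 h of two-drug dosing.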

Row | SMILES | Bliss excess [1] | Bliss excess (8-MG-BA (Glioblastoma) [2]) | Bliss excess [3] | combination Emax [4] | combination Emax [5] | combination Emax [6] | combination Emax [7] | combination Emax [8] | combination Emax [9] | combination Emax (CAS-1 (Glioblastoma)) | combination Emax (PA-1 (Ovarian Carcinoma)) | combination Emax [10] | combination Emax [11] | combination Emax [12] | combination Emax [13] | combination Emax (GI-ME-N (Neuroblastoma)) | combination Emax (NY (Osteosarcoma)) | combination Emax [14] | combination Emax (ARH-77 (Non-Cancerous)) | combination Emax (8-MG-BA (Glioblastoma) [15])
1 | CCN(CCO)CCCOc1ccc2c(Nc3cc(CC(=O)Nc4cccc(F)c4)[nH]n3)ncnc2c1 [AZD2811] + C[C@@H]1COCCN1C2=NC(=NC(=C2)C3(CC3)[S@](=N)(=O)C)C4=C5C=CNC5=NC=C4 [AZD6738] (first compound max 1 µM, 7x7, partner max 10 µM) | -0.0114 | -0.0212 | -0.0023 | 0.29 | 0.339 | 0.414 | 0.331 | 0.729 | 0.802 | 0.544 | 0.795 | 0.781 | 0.474 | 0.565 | 0.744 | 0.552 | 0.619 | 0.551 | 0.941 | 0.785
2 | CN(C)CCCOc1ccc(-c2ccc3ncc4c(c3c2)n(C2CCOCC2)c(=O)n4C)cn1 [AZD0156] + O=C(c1cc(Cc2n[nH]c(=O)c3ccccc23)ccc1F)N1CCN(C(=O)C2CC2)CC1 [Olaparib] (first compound max 3 µM, partner max 3 µM) | 0.0139 | 0.079 | 0.0098 | 0.291 | 0.215 | 0.226 | 0.152 | 0.135 | 0.383 | 0.449 | 0.479 | 0.145 | 0.412 | 0.56 | 0.582 | 0.193 | 0.338 | 0.303 | 0.63 | 0.4
3 | C=CCn1c(=O)c2cnc(Nc3ccc(N4CCN(C)CC4)cc3)nc2n1-c1cccc(C(C)(C)O)n1 [AZD1775] + C1CN(CCC1(C(=O)N[C@@H](CCO)C2=CC=C(C=C2)Cl)N)C3=NC=NC4=C3C=CN4 [Capivasertib] (first compound max 3 µM, partner max 3 µM) | -0.0567 | 0.0277 | 0.0187 | 0.513 | 0.685 | 0.61 | 0.466 | 0.594 | 0.79 | 0.709 | 0.866 | 0.92 | 0.857 | 0.856 | 0.911 | 0.451 | 0.737 | 0.731 | 0.983 | 0.975
4 | COc1cc2c(cc1OCCCCCOc1cc3c(cc1OC)C(=O)N1C=C(C)C[C@H]1C=N3)N=C[C@@H]1CC(C)=CN1C2=O [SG3199] + O=C(c1cc(Cc2n[nH]c(=O)c3ccccc23)ccc1F)N1CCN(C(=O)C2CC2)CC1 [Olaparib] (first compound max 0.001 µM, 7x7, partner max 10 µM) | -0.0457 | 0.011 | -0.0154 | 0.0949 | 0.108 | 0.0953 | 0.166 | 0.124 | 0.147 | 0.235 | 0.324 | 0.0693 | 0.136 | 0.258 | 0.116 | 0.161 | 0.0994 | 0.226 | 0.221 | 0.267
5 | Cc1c2c(nn1C)CSCc1cc(n(C)n1)CSc1cc(c3ccccc3c1)OCCCc1c(C(=O)O)n(C)c3c-2c(Cl)ccc13 [AZD5991] + C1CN(CCC1(C(=O)N[C@@H](CCO)C2=CC=C(C=C2)Cl)N)C3=NC=NC4=C3C=CN4 [Capivasertib] (first compound max 1 µM, 7x7, partner max 3 µM) | -0.0197 | 0.0821 | -0.0211 | 0.227 | 0.424 | 0.41 | 0.227 | 0.689 | 0.601 | 0.573 | 0.947 | 0.378 | 1 | 0.994 | 1 | 0.27 | 0.492 | 0.173 | 0.915 | 0.85
6 | CC(=O)Nc1cccc(-n2c(=O)n(C3CC3)c(=O)c3c(Nc4ccc(I)cc4F)n(C)c(=O)c(C)c32)c1 [Trametinib] + Cc1nc(-c2cn3c(n2)-c2ccc(-c4cnn(C(C)(C)C(N)=O)c4)cc2OCC3)n(C(C)C)n1 [Taselisib] (first compound max 1 µM, 7x7, partner max 10 µM) | 0.0386 | 0.143 | 0.136 | 0.578 | 0.728 | 0.695 | 0.821 | 1 | 0.976 | 0.957 | 1 | 0.477 | 0.586 | 0.63 | 0.631 | 0.77 | 0.747 | 0.447 | 0.776 | 0.863
7 | NC1(C(=O)N[C@@H](CCO)c2ccc(Cl)cc2)CCN(c2ncnc3[nH]ccc23)CC1 [Capivasertib] + C[C@@H]1COCCN1C2=NC(=NC(=C2)C3(CC3)[S@](=N)(=O)C)C4=C5C=CNC5=NC=C4 [AZD6738] (first compound max 10 µM, 7x7, partner max 10 µM) | -0.0782 | -0.004 | -0.069 | 0.219 | 0.626 | 0.541 | 0.364 | 0.812 | 0.68 | 0.735 | 0.964 | 0.861 | 0.235 | 0.566 | 0.95 | 0.411 | 0.645 | 0.586 | 0.927 | 0.873
8 | COc1cc2ncnc(Nc3ccc(F)c(Cl)c3)c2cc1OCCCN1CCOCC1 [Gefitinib] + CC(C)n1c(=O)n(C)c2cnc3cc(F)c(-c4ccc(OCCCN5CCCCC5)nc4)cc3c21 [AZD1390] (first compound max 10 µM, 7x7, partner max 0.3 µM) | 0.0099 | -0.0604 | -0.104 | 0.148 | 0.384 | 0.236 | 0.0663 | 0.272 | 0.366 | 0.134 | 0.351 | 0.152 | 0.0926 | 0.128 | 0.249 | 0.0541 | 0.239 | 0.0311 | 0.272 | 0.268
9 | Cc1cc2ncnn2cc1Nc1ncc2c(n1)n(C1CCOCC1)c(=O)n2C [AZD7648] + C=CCn1c(=O)c2cnc(Nc3ccc(N4CCN(C)CC4)cc3)nc2n1-c1cccc(C(C)(C)O)n1 [AZD1775] (first compound max 10 µM, partner max 1 µM) | -0.105 | -0.0114 | -0.0241 | 0.485 | 0.339 | 0.417 | 0.304 | 0.643 | 0.658 | 0.566 | 0.706 | 0.89 | 0.379 | 0.784 | 0.931 | 0.393 | 0.548 | 0.577 | 0.969 | 0.648
10 | COc1cccc(OCCCN)c1-c1cc(Nc2cnc(C#N)cn2)n[nH]1 [Prexasertib] + C=CCn1c(=O)c2cnc(Nc3ccc(N4CCN(C)CC4)cc3)nc2n1-c1cccc(C(C)(C)O)n1 [AZD1775] (first compound max 1 µM, partner max 1 µM) | -0.0337 | 0.0358 | -0.0079 | 0.569 | 0.621 | 0.6 | 0.449 | 0.813 | 0.861 | 0.696 | 0.851 | 0.925 | 0.75 | 0.985 | 0.998 | 0.513 | 0.663 | 0.891 | 0.996 | 0.977
11 | Cc1cc2ncnn2cc1Nc1ncc2c(n1)n(C1CCOCC1)c(=O)n2C [AZD7648] + CCN(CCO)CCCOc1ccc2c(Nc3cc(CC(=O)Nc4cccc(F)c4)[nH]n3)ncnc2c1 [AZD2811] (first compound max 10 µM, 7x7, partner max 1 µM) | -0.0318 | 0.0664 | 0.0545 | 0.239 | 0.356 | 0.287 | 0.244 | 0.605 | 0.762 | 0.427 | 0.315 | 0.596 | 0.499 | 0.556 | 0.486 | 0.207 | 0.242 | 0.265 | 0.54 | 0.358
12 | CC1(C)CCC(CN2CCN(c3ccc(C(=O)NS(=O)(=O)c4ccc(NCC5CCOCC5)c([N+](=O)[O-])c4)c(Oc4cnc5[nH]ccc5c4)c3)CC2)=C(c2ccc(Cl)cc2)C1 [Venetoclax] + Cc1cc2ncnn2cc1Nc1ncc2c(n1)n(C1CCOCC1)c(=O)n2C [AZD7648] (first compound max 1 µM, 7x7, partner max 10 µM) | -0.0266 | -0.0139 | -0.0222 | 0.219 | 0.273 | 0.108 | 0.341 | 0.291 | 0.766 | 0.279 | 0.473 | 0.255 | 0.222 | 0.897 | 0.205 | 0.186 | 0.578 | 0.164 | 0.559 | 0.133
13 | Cc1c2c(nn1C)CSCc1cc(n(C)n1)CSc1cc(c3ccccc3c1)OCCCc1c(C(=O)O)n(C)c3c-2c(Cl)ccc13 [AZD5991] + Cc1cc2ncnn2cc1Nc1ncc2c(n1)n(C1CCOCC1)c(=O)n2C [AZD7648] (first compound max 1 µM, 7x7, partner max 10 µM) | -0.0141 | 0.0218 | 0.014 | 0.291 | 0.299 | 0.168 | 0.205 | 0.499 | 0.364 | 0.401 | 0.906 | 0.341 | 1 | 1 | 1 | 0.228 | 0.579 | 0.191 | 0.835 | 0.646
